Reference: patent US20090105202A1 (priority 2005, published 2009)
pIC50: −log10 of the molar value. Read-outs that look alike come from different tables or passages of the source.

Key:
HCT116 cells [1] = settings: read-out: IC50 (the drug concentration producing 50% inhibition of colony formation), drugs 72 hours, colonies counted after 8 days
Procedure: To test the effect of androsterone derivatives of this example, HCT116cells (colorectal carcinoma cells) were plated in 60 mm Petri dishes containing 2.7 ml of medium (modified McCoy's 5a medium containing 10% fetal bovine serum and 100 units/ml penicillin and 100 µg/ml streptomycin). The cells were incubated in a CO2 incubator at 37° C. for 5 hours for attachment to the bottom of Petri dishes. Drugs were made up fresh in medium at ten times the final concentration, and then 0.3 ml of tins stock solution was added to the 2.7 ml of medium containing 5% bovine calf serum (BCS) in the dish. The cells were then incubated with drugs for 72 hours at 37° C. At the end of incubation the drug-containing media were decanted, the dishes were rinsed with 4 ml of Hank's Balance Salt Solution (HBSS). […] The cell colonies stained with methylene blue (0.5% in ethanol) were counted using colony counter after incubation for 8 days for HCT116 cells.

HCT116 cells [2] = assay type: cell-based; design: unit not given here

Structure (SMILES)	pIC50 (HCT116 cells [1])	In vitro antitumor activity against HCT116 cells (HCT116 cells [2]; 1 μM)	In vitro antitumor activity against HCT116 cells (HCT116 cells [2]; 10 μM)	In vitro antitumor activity against HCT116 cells (HCT116 cells [2]; 100 nM)
CC[C@@]1(OC(=O)COc2ccc(C(=O)O[C@H]3CC[C@@]4(C)[C@@H](CC[C@@H]5[C@@H]4CC[C@]4(C)C(=O)CC[C@@H]54)C3)cc2)C(=O)OCc2c1cc1n(c2=O)Cc2cc3ccccc3nc2-1 [compound 0103021, Camptothecin-20S-O-(4-carboxyphenoxyacetate) linked with epiandrosterone]	8.46	–	–	–
C[C@]12CC[C@H](OC(=O)CCC(=O)OCc3ccc4c(c3)C(=O)c3ccccc3C4=O)C[C@@H]1CC[C@@H]1[C@@H]2CC[C@]2(C)C(=O)CC[C@@H]12 [compound 991120, 1-((3β,5α)-3-Hydroxyandrostan-17-one)-4-(2-(hydroxymethyl)anthraquinone)-succinate]	–	100	0	–
O=c1[nH]cc(F)c(=O)[nH]1 [5-FU, reference compound]	–	–	17.00	–
CC[C@@]1(OC(=O)COc2ccc(C(=O)O[C@@H]3CC[C@@]4(C)[C@@H](CC[C@@H]5[C@@H]4CC[C@]4(C)C(=O)CC[C@@H]54)C3)cc2)C(=O)OCc2c1cc1n(c2=O)Cc2cc3ccccc3nc2-1 [compound 010216, Camptothecin-20S-O-(4-carboxyphenexyacetate) linked with androsterone]	8.60	–	–	–
CC(ON=C1c2cc([N+](=O)[O-])cc([N+](=O)[O-])c2-c2c1ccc([N+](=O)[O-])c2[N+](=O)[O-])C(=O)O[C@H]1CC[C@@]2(C)[C@@H](CC[C@@H]3[C@@H]2CC[C@]2(C)C(=O)CC[C@@H]32)C1 (stereo partly drawn) [compound 991022, (3β,5α)-3-Hydroxyandrostan-17-one (+)-2-(2,4,5,6-tetranitro-9-flourenylidene-aminooxy)proprionate]	–	100	0	–
C[C@]12CC[C@H](OC(=O)c3ccc([N+](=O)[O-])o3)C[C@@H]1CC[C@@H]1[C@@H]2CC[C@]2(C)C(=O)CC[C@@H]12 [compound 991027, (3β,5α)-3-Hydroxyandrostan-17-one 5-nitro-2-furoate]	–	0	0	4.00
